The source of these data is PMC6021345 (Oncotarget, 2018).

For one data set, the target named is T1, CES1 (Homo sapiens, UniProt P23141).
T1 construct: purchased Sigma-Aldrich E0162
T1 sequence (P23141 18-567): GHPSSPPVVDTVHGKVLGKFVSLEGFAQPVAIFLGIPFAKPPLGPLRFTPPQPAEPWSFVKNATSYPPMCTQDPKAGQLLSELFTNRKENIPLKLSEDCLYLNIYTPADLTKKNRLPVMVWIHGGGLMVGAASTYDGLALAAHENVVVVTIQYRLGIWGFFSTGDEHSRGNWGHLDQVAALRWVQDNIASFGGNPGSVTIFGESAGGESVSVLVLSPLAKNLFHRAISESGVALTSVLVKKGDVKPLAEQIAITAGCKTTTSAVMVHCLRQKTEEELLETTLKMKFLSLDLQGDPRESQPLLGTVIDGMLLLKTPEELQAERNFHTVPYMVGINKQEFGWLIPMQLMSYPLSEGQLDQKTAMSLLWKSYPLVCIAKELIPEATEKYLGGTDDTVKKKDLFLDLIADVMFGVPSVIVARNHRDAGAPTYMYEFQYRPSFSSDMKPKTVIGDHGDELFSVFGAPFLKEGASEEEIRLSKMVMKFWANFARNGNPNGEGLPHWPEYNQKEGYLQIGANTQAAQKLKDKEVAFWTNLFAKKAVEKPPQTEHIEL
As to the kind of experiment: In vitro CES1 enzyme-based assay (4-NPA substrate). Conditions: even at 300μM. It is filed as biochemical. As to the method: (§1) The recombinant purified CES2 and CES1 enzymes, and 4-NPA were purchased from Sigma-Aldrich with product IDs E0412, E0162, and N8130, respectively. […] All compounds were dissolved in DMSO at 10mM. In the screening assay, the compounds were diluted in 50mM HEPES and the final compound concentration in the reaction system was adjusted to 50μM. […] The assays were conducted at 300μl total volume in 96-well plates. Reactions consisted of the following: 100μL 50mM HEPES with 20 units of enzyme, 10μL compound solution (various concentrations), 2μL 300mM 4-NAP, and 188μL 50mM HEPES, pH 7.4. The compound and 4-NAP solution were added into the plate first and then the reaction was initiated by the addition of enzyme solution. After 15 minutes incubation at 25°C, absorbance was measured using a microplate reader at 405nm in FLUOstar Omega Microplate Reader. The CES1/CES2 inhibitor compound bis-(4-nitrophenyl) phosphate (BNPP) was used as positive control in all the assays.

The target of the next data set is T2, CES2 (Homo sapiens, UniProt O00748).
T2 construct: purchased Sigma-Aldrich E0412
T2 sequence (O00748 27-559): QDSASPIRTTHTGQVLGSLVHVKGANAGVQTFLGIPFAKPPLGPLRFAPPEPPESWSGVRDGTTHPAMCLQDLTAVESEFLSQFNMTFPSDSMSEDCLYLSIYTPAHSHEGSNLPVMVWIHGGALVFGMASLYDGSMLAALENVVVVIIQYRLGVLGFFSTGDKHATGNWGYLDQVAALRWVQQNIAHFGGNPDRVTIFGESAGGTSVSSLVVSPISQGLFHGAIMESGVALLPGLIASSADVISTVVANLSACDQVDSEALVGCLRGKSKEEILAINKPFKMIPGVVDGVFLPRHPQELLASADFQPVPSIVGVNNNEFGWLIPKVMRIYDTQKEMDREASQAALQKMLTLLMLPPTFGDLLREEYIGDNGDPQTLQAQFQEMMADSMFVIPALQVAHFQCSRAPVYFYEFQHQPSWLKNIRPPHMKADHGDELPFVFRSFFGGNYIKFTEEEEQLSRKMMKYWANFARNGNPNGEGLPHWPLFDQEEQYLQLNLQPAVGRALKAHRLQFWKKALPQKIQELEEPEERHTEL
Briefly: In vitro CES2 enzyme-based assay (4-NPA substrate). It is filed as biochemical. As to the method:
as §1

The subject of data set [1] is murine CT-26 tumor-bearing immuno-competent mice. As to the kind of experiment: CPT-11 induced diarrhea in CT-26 tumor-bearing mice. It is filed as in vivo. The protocol: We tested the effect of Hst (20 and 100 mg/kg) on murine CT-26 tumor-bearing immuno-competent mice with CPT-11 (50 mg/kg, roughly equivalent to 5 mg/kg typical human CPT-11 dose) intraperitoneally injected daily from day 1-9. Hst was given from day 1-15 and 30 min before CPT-11 administration on day 1-9. Changes of stool character were recorded twice daily to determine the severity of diarrhea. Fecal staining of skin or lose watery stool was determined as diarrhea but not severe, and only the black sticky stool (bloody diarrhea) was determined as severe diarrhea.
CT-26 cell line was used to make the tumor bearing mouse model by s.c. injection of 0.02mL cells in PBS at 5×10^7 cells/mL into the posterior mid-dorsum. Tumor volumes were estimated by the formula π/6×a^2×b, where a is the short and b is the long axis. When tumor volume reached roughly 100mm^3 (~10 days after implantation, defined as day 1), mice were randomly separated into 5 groups, 1). CPT-11 only group, receiving CPT-11 50mg/kg + vehicle 2). CPT-11+Hst 20mg/kg, 3). CPT-11+Hst 100mg/kg, 4). Hst 100mg/kg only, and 5) vehicle control group. CPT-11 was administrated by i.p. injection from day 1 to day 9 while Hst were administrated by oral gavage from day 1 to the end of study. An equivalent dosage of saline or CMC were administrated by i.p injection and oral gavage as vehicle, respectively. Mice were examined daily for signs of diarrhea (fecal staining of skin, lose watery stool) and bloody diarrhea (black sticky stool), as well as tumor growth. After sacrifice, jejunum, ileum and colon samples were dissected. Tissues were formalin-fixed and paraffin embedded for histological examination using 4μm-thick, 100μm step serial sections stained with H&E. A histologic score to evaluate inflammation, epithelial changes and mucosa architecture for each slide was calculated as described previously. For immunohistochemical staining, sections were stained with antibodies against Ki67, β-catenin, F4/80, Ly-6B.2 and pSTAT3 (Tyr705) overnight at 4°C. Slides were then washed and stained with the appropriate secondary antibodies. Mounted slides were examined under Olympus BX61 upright microscopy (HMRI Advanced Cellular and Tissue Microscope Core Facility).

On the set-up of data set [2]: method as in PMID 10725311. Conditions: after i.v. dosing radiolabeled drug; cited from earlier work.
Details of data set [3]: method as in printed. The note with it: library annotation; ref not given; cited from earlier work.
On the set-up of data set [4]: method as in printed. Conditions: ref not given; cited from earlier work.
On the set-up of data set [5]: method as in printed. The note with it: high dose loperamide; ref not given; cited from earlier work.

Structures are written as SMILES.

Broadly, the IC50 is the concentration that inhibits the measured activity by half. Consider `O=C(/C=C/c1ccccc1)c1ccc(O)cc1O` [2’, 4’-dihydroxychalcone], for which the CES1 inhibition entry on CES1 is “no significant CES1 inhibition”. In addition, on CES2 (CES2 vs CES1), the “selectivity for CES2 (over CES1)” value was greater than 100 fold. The IC50 on CES2 (recombinant CES2, 4-NPA, 15 min, 25°C) worked out at 1660 ± 690 nM.

Turning to `CCc1c2c(nc3ccc(OC(=O)N4CCC(N5CCCCC5)CC4)cc13)-c1cc3c(c(=O)n1C2)COC(=O)[C@]3(O)CC` [CPT-11, irinotecan], in data set [1] (CPT-11 only group, by day 12), the “mice that had to be euthanized” value was “all”. Moreover, the “mice that developed some degree of diarrhea” value in data set [1] (mouse, in vivo, 15 day) is 100%. Also, in data set [2], the “fraction found unchanged in human bile” value is 30%.

Turning to `CC1(C)CCC2=C(O1)c1ccccc1C(=O)C2=O` [compound 1004, beta-Lapachone], in data set [3], the solubility remark result was “poorly soluble, anti-tumor at mM level, combination and radiosensitizing activity”.

For `COc1ccc([C@@H]2CC(=O)c3c(O)cc(O[C@@H]4O[C@H](CO[C@@H]5O[C@@H](C)[C@H](O)[C@@H](O)[C@H]5O)[C@@H](O)[C@H](O)[C@H]4O)cc3O2)cc1O` [hesperidin], in data set [4], the “fraction metabolized in cells to generate Hst” value is 99%.

With `CN(C)C(=O)C(CCN1CCC(O)(c2ccc(Cl)cc2)CC1)(c1ccccc1)c1ccccc1` [loperamide], the “incidence of grade 3-4 diarrheas” value in data set [5] is reported as 28-40 % of treated patients.
